Experimental data published in EPA's ToxRefDB 2.

Key:
primate [1] = details: Sub-acute repeat dose toxicity; Oral; Gavage/Intubation; dose end: 8 day; group: systemic; systemic / hematology / neutrophils / neutrophils + systemic / in life observation / body weight / body weight + systemic / in life …
rabbit = details: Sub-acute repeat dose toxicity, Oral, Gavage/Intubation, dose end: 5 day, group: systemic
rat [2] = details: Sub-acute repeat dose toxicity, sprague dawley, Oral, Gavage/Intubation, dose end: 28 day, group: systemic
rat [3] = details: Sub-acute repeat dose toxicity, Oral, Gavage/Intubation, dose end: 14 day, group: systemic
primate [4] = details: Sub-acute repeat dose toxicity; Oral; Gavage/Intubation; dose end: 35 day; group: systemic; systemic / in life observation / clinical signs / emesis
primate [5] = details: Sub-acute repeat dose toxicity, Oral, Gavage/Intubation, dose end: 15 day, group: systemic
primate [6] = details: Sub-acute repeat dose toxicity; Oral; Gavage/Intubation; dose end: 5 day; group: systemic; systemic / clinical chemistry / alanine aminotransferase (alt/sgpt) / alanine aminotransferase (alt/sgpt) + systemic / clinical chemistry / …
dog = details: Sub-acute repeat dose toxicity; beagle; Oral; Gavage/Intubation; dose end: 5 day; group: systemic; systemic / in life observation / clinical signs / emesis
rat [7] = details: Multigenerational reproductive toxicity study, sprague dawley, Oral, Gavage/Intubation, dose end: 2 generation
rat [8] = details: Combined chronic toxicity/carcinogenicity, sprague dawley, Oral, Gavage/Intubation, dose end: 104 week
rat [9] = details: Subchronic oral toxicity in rodents, sprague dawley, Gavage/Intubation, dose end: 90 day
mouse = details: Carcinogenicity; cd1; Oral; Feed; dose end: 18 month; group: systemic; systemic / in life observation / body weight / body weight + systemic / in life observation / body weight / body weight gain
[10] = systemic / in life observation / clinical signs / [other] + systemic / in life observation / clinical signs / abnormal feces + systemic / in…
[11] = systemic / in life observation / clinical signs / abnormal feces + systemic / in life observation / clinical signs / general pallor + …
[12] = systemic / hematology / fibrinogen / fibrinogen + systemic / hematology / leukocyte (wbc) count differential / leukocyte (wbc) + systemic / …
[13] = systemic / pathology microscopic / blood / vasculitis + systemic / pathology microscopic / kidney / degeneration + systemic / pathology …
[14] = systemic / in life observation / clinical signs / nasal discharge + systemic / in life observation / clinical signs / salivation
[15] = systemic / pathology gross / intestine large / dilatation + systemic / pathology gross / intestine small / dilatation + systemic / pathology…
[16] = systemic / clinical chemistry / alanine aminotransferase (alt/sgpt) / alanine aminotransferase (alt/sgpt) + systemic / clinical chemistry / …
[17] = systemic / in life observation / body weight / body weight + systemic / in life observation / clinical signs / abnormal feces + systemic / …
[18] = group: cholinesterase, cholinesterase / cholinesterase / cholinesterase / plasma cholinesterase (che)
[19] = group: offspring, developmental / offspring survival late / lactation index / lactation index + developmental / offspring survival late / viability index / …
[20] = group: offspring, systemic / in life observation / body weight / offspring (pup) weight
[21] = group: reproductive, reproductive / reproductive performance / estrous cycle / corpora lutea
[22] = group: reproductive, reproductive / reproductive performance / estrous cycle / corpora lutea + reproductive / reproductive performance / fertility / fertility + …
[23] = group: cholinesterase, cholinesterase / cholinesterase / cholinesterase / brain cholinesterase (che) + cholinesterase / cholinesterase / cholinesterase / plasma …
[24] = group: cholinesterase, cholinesterase / cholinesterase / cholinesterase / erythrocyte cholinesterase (che)
[25] = group: systemic, systemic / pathology microscopic / liver / adenoma/carcinoma combined
[26] = group: cholinesterase, cholinesterase / cholinesterase / cholinesterase / plasma cholinesterase (che) + cholinesterase / cholinesterase / cholinesterase / brain …
[27] = group: systemic, systemic / in life observation / clinical signs / pupillary function (dilation or constriction)
[28] = group: systemic, systemic / in life observation / clinical signs / pupillary function (dilation or constriction) + systemic / in life observation / body …

Work on `CC(C)(O)c1ccc(CNC(=O)c2cccnc2Oc2ccc(F)cc2)cc1` yielded an LEL (primate [1]) of 1 mg/kg/day, an LOAEL (primate [1]) of over 1 mg/kg/day and an NEL (primate [1]) of under 1 mg/kg/day. For the same compound, the NOAEL (primate [1]) was at least 1 mg/kg/day, the LOAEL (rabbit; [10]) was over 20 mg/kg/day and the NOAEL (rabbit; [10]) was at least 20 mg/kg/day. The LEL (rabbit; [11]) was 1 mg/kg/day, the NEL (rabbit; [11]) was under 1 mg/kg/day and the LOAEL (rat [2]; [12]) was over 20 mg/kg/day. The NOAEL (rat [2]; [12]) was at least 20 mg/kg/day, the LEL (rat [2]; [13]) was 1 mg/kg/day and the NEL (rat [2]; [13]) was under 1 mg/kg/day. It also gave an LEL (rat [3]; [14]) of 3 mg/kg/day, an NEL (rat [3]; [14]) of under 3 mg/kg/day and an LOAEL (rat [3]; [15]) of over 30 mg/kg/day. It also gave an NOAEL (rat [3]; [15]) of at least 30 mg/kg/day, an LEL (primate [4]) of 1 mg/kg/day and an LOAEL (primate [4]) of over 1 mg/kg/day. It also gave an NEL (primate [4]) of under 1 mg/kg/day, an NOAEL (primate [4]) of at least 1 mg/kg/day and an LOAEL (primate [5]; [16]) of over 20 mg/kg/day. The NOAEL (primate [5]; [16]) was at least 20 mg/kg/day, the LEL (primate [5]; [17]) was 3 mg/kg/day and the NEL (primate [5]; [17]) was under 3 mg/kg/day. The LEL (primate [6]) was 20 mg/kg/day, the LOAEL (primate [6]) was over 20 mg/kg/day and the NEL (primate [6]) was under 20 mg/kg/day. For the same compound, the NOAEL (primate [6]) was at least 20 mg/kg/day, the LEL (dog) was 10 mg/kg/day and the LOAEL (dog) was over 10 mg/kg/day. The NEL (dog) was under 10 mg/kg/day and the NOAEL (dog) was at least 10 mg/kg/day.

With `COC(=O)C=C(C)OP(=O)(OC)OC` [Mevinphos] the LEL (rat [7]; [18]) was 0.05 mg/kg/day, the LOAEL (rat [7]; [18]) was 0.05 mg/kg/day and the NEL (rat [7]; [18]) was under 0.05 mg/kg/day. The NOAEL (rat [7]; [18]) was under 0.05 mg/kg/day, the LOAEL (rat [7]; [19]) was over 0.5 mg/kg/day and the NOAEL (rat [7]; [19]) was at least 0.5 mg/kg/day. For the same compound, the LEL (rat [7]; [20]) was 0.05 mg/kg/day, the NEL (rat [7]; [20]) was under 0.05 mg/kg/day and the NEL (rat [7]; group: parental, systemic / in life observation / clinical signs / ataxia + systemic / in life observation / clinical signs / oral discharge + systemic / in …) was 0.1 mg/kg/day. The NOAEL (rat [7]; group: parental, systemic / organ weight / ovary / relative to body weight + systemic / in life observation / body weight / body weight) was 0.1 mg/kg/day, the LOAEL (rat [7]; group: parental, systemic / organ weight / ovary / relative to body weight + systemic / organ weight / testes / absolute) was 0.5 mg/kg/day and the LEL (rat [7]; group: parental, systemic / organ weight / ovary / relative to body weight + systemic / organ weight / testes / absolute + systemic / in life observation / …) was 0.5 mg/kg/day. The NEL (rat [7]; [21]) was 0.1 mg/kg/day, the NOAEL (rat [7]; [21]) was 0.1 mg/kg/day and the LEL (rat [7]; [22]) was 0.5 mg/kg/day. It also gave an LOAEL (rat [7]; [22]) of 0.5 mg/kg/day, an LOAEL (rat [8]; [23]) of 0.35 mg/kg/day and an NOAEL (rat [8]; [23]) of 0.025 mg/kg/day. The LEL (rat [8]; [24]) was 0.025 mg/kg/day, the NEL (rat [8]; [24]) was under 0.025 mg/kg/day and the LEL (rat [8]; [25]) was 0.6 mg/kg/day. It also gave an LOAEL (rat [8]; [25]) of over 0.6 mg/kg/day, an NEL (rat [8]; [25]) of 0.35 mg/kg/day and an NOAEL (rat [8]; [25]) of at least 0.6 mg/kg/day. For the same compound, the LEL (rat [9]; [18]) was 0.056 mg/kg/day, the LOAEL (rat [9]; [18]) was 0.056 mg/kg/day and the NEL (rat [9]; [26]) was 0.011 mg/kg/day. The NOAEL (rat [9]; [26]) was 0.011 mg/kg/day, the LEL (rat [9]; [27]) was 0.056 mg/kg/day and the LOAEL (rat [9]; [27]) was 0.056 mg/kg/day. For the same compound, the NEL (rat [9]; [28]) was 0.011 mg/kg/day, the NOAEL (rat [9]; [28]) was 0.011 mg/kg/day and the LEL (mouse) was 3.7 mg/kg/day. For the same compound, the LOAEL (mouse) was 3.7 mg/kg/day, the NEL (mouse) was 1.5 mg/kg/day and the NOAEL (mouse) was 1.5 mg/kg/day.
